Laboratory results from PubChem BioAssay AID2060494 (Molecular Pharmacology Branch, DTP, NCI, 2025).

System: 435261-313-R-J1-PDC complex spheroid viability
Test: Anticancer human tumor 435261-313-R-J1-PDC patient-derived colon adenocarcinoma cell line growth inhibition [GQUAD]
Conditions: for IC50: curve of first compound; for viability, T/C: stronger effect = lower value
Procedure, shortened: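 Tumor cells were grown as complex spheroids with HUVEC endothelial cells and mesenchymal stem cells as stroma. G-quadruplex stabilizers were combined with targeted agents over half-log dilutions from near the clinical Cmax, or from 10 microM.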

[1] = second compound 0.0316 µM, first compound 0.0316 µM
[2] = second compound 0.0316 µM, first compound 0.1 µM
[3] = second compound 0.0316 µM, first compound 0.316 µM
[4] = second compound 0.0316 µM, first compound 1 µM
[5] = second compound 0.0316 µM, first compound 3.16 µM
[6] = second compound 0.0316 µM, first compound 10 µM
[7] = second compound 0.1 µM, first compound 0.0316 µM
[8] = second compound 0.1 µM, first compound 0.1 µM
[9] = second compound 0.1 µM, first compound 0.316 µM
[10] = second compound 0.1 µM, first compound 1 µM
[11] = second compound 0.1 µM, first compound 3.16 µM
[12] = second compound 0.1 µM, first compound 10 µM
[13] = second compound 0.316 µM, first compound 0.0316 µM
[14] = second compound 0.316 µM, first compound 0.1 µM
[15] = second compound 0.316 µM, first compound 0.316 µM
[16] = second compound 0.316 µM, first compound 1 µM
[17] = second compound 0.316 µM, first compound 3.16 µM
[18] = second compound 0.316 µM, first compound 10 µM
[19] = second compound 1 µM, first compound 0.0316 µM
[20] = second compound 1 µM, first compound 0.1 µM
[21] = second compound 1 µM, first compound 0.316 µM
[22] = second compound 1 µM, first compound 1 µM
[23] = second compound 1 µM, first compound 3.16 µM
[24] = second compound 1 µM, first compound 10 µM
[25] = second compound 3.16 µM, first compound 0.0316 µM
[26] = second compound 3.16 µM, first compound 0.1 µM
[27] = second compound 3.16 µM, first compound 0.316 µM
[28] = second compound 3.16 µM, first compound 1 µM
[29] = second compound 3.16 µM, first compound 3.16 µM
[30] = second compound 3.16 µM, first compound 10 µM
[31] = second compound 10 µM, first compound 0.0316 µM
[32] = second compound 10 µM, first compound 0.1 µM
[33] = second compound 10 µM, first compound 0.316 µM
[34] = second compound 10 µM, first compound 1 µM
[35] = second compound 10 µM, first compound 3.16 µM
[36] = second compound 10 µM, first compound 10 µM
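Further: spheroids exposed to the agents for seven days before readout.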
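Wherever viability, T/C is given: percent of vehicle control viability with DMSO wells as 100%.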

**Q.** For `C#Cc1c(F)ccc2cc(O)cc(-c3ncc4c(N5CC6CCC(C5)N6)nc(OCC56CCCN5CC(F)C6)nc4c3F)c12` (centres undefined) + Cc1cnc(CNC(=O)c2c(=O)c3ccc(N4CCCN(C)CC4)nc3n3c2sc2ccccc23)cn1, which IC50 (second compound 0.0316 µM) is on record?
**A.** The IC50 was 1840 nM.

**Q.** What about the IC50 (second compound 0.1 µM) of the same compound?
**A.** The IC50 was 341 nM.

**Q.** And the IC50 (second compound 0.316 µM)?
**A.** The IC50 was 448 nM.

**Q.** And the IC50 (second compound 1 µM)?
**A.** The IC50 was < 31.6 nM.

**Q.** What about the IC50 (second compound 3.16 µM) of the same compound?
**A.** The IC50 was < 31.6 nM.

**Q.** And the IC50 (second compound 10 µM)?
**A.** Its IC50 is < 31.6 nM.

**Q.** And the viability, T/C [1]?
**A.** Its viability, T/C is 74.5%.

**Q.** What about the viability, T/C [2] of the same compound?
**A.** The viability, T/C was 61%.

**Q.** And the viability, T/C [3]?
**A.** The viability, T/C was 71.5%.

**Q.** What about the viability, T/C [4] of the same compound?
**A.** The viability, T/C was 50.5%.

**Q.** What about the viability, T/C [5] of the same compound?
**A.** The viability, T/C was 45.9%.

**Q.** And the viability, T/C [6]?
**A.** The viability, T/C was 34.7%.

**Q.** What about the viability, T/C [7] of the same compound?
**A.** The viability, T/C was 59.5%.

**Q.** And the viability, T/C [8]?
**A.** The viability, T/C was 62.2%.

**Q.** And the viability, T/C [9]?
**A.** Its viability, T/C is 49.8%.

**Q.** What about the viability, T/C [10] of the same compound?
**A.** The viability, T/C was 36.6%.

**Q.** And the viability, T/C [11]?
**A.** The viability, T/C was 43.1%.

**Q.** And the viability, T/C [12]?
**A.** The viability, T/C was 29.6%.

**Q.** And the viability, T/C [13]?
**A.** Its viability, T/C is 53%.

**Q.** And the viability, T/C [14]?
**A.** Its viability, T/C is 59.6%.

**Q.** And the viability, T/C [15]?
**A.** The viability, T/C was 55.4%.

**Q.** And the viability, T/C [16]?
**A.** The viability, T/C was 37.8%.

**Q.** What about the viability, T/C [17] of the same compound?
**A.** The viability, T/C was 34.8%.

**Q.** And the viability, T/C [18]?
**A.** The viability, T/C was 30.5%.

**Q.** And the viability, T/C [19]?
**A.** Its viability, T/C is 37.4%.

**Q.** And the viability, T/C [20]?
**A.** The viability, T/C was 34.4%.

**Q.** What about the viability, T/C [21] of the same compound?
**A.** The viability, T/C was 34.1%.

**Q.** And the viability, T/C [22]?
**A.** The viability, T/C was 34.3%.

**Q.** And the viability, T/C [23]?
**A.** The viability, T/C was 30%.

**Q.** What about the viability, T/C [24] of the same compound?
**A.** The viability, T/C was 17.1%.

**Q.** What about the viability, T/C [25] of the same compound?
**A.** Its viability, T/C is 0.16%.

**Q.** What about the viability, T/C [26] of the same compound?
**A.** Its viability, T/C is 6.4%.

**Q.** And the viability, T/C [27]?
**A.** The viability, T/C was 0.17%.

**Q.** And the viability, T/C [28]?
**A.** The viability, T/C was 6.39%.

**Q.** And the viability, T/C [29]?
**A.** The viability, T/C was 0.17%.

**Q.** What about the viability, T/C [30] of the same compound?
**A.** The viability, T/C was 0.15%.

**Q.** And the viability, T/C [31]?
**A.** The viability, T/C was 0.12%.

**Q.** What about the viability, T/C [32] of the same compound?
**A.** The viability, T/C was 0.14%.

**Q.** What about the viability, T/C [33] of the same compound?
**A.** The viability, T/C was 0.16%.

**Q.** What about the viability, T/C [34] of the same compound?
**A.** The viability, T/C was 0.16%.

**Q.** What about the viability, T/C [35] of the same compound?
**A.** The viability, T/C was 0.22%.

**Q.** What about the viability, T/C [36] of the same compound?
**A.** The viability, T/C was 0.18%.

**Q.** Which IC50 (second compound 0.0316 µM) does the source give for `CC1COCCN1c1cc(C2(O)CC3CCC(C2)O3)c2cnn(-c3ccn[nH]3)c2n1` (centres undefined) + Cc1cnc(CNC(=O)c2c(=O)c3ccc(N4CCCN(C)CC4)nc3n3c2sc2ccccc23)cn1 here?
**A.** Its IC50 is 95.2 nM.

**Q.** What about the IC50 (second compound 0.1 µM) of the same compound?
**A.** The IC50 was 105 nM.

**Q.** What about the IC50 (second compound 0.316 µM) of the same compound?
**A.** Its IC50 is 48.5 nM.

**Q.** What about the IC50 (second compound 1 µM) of the same compound?
**A.** Its IC50 is < 31.6 nM.

**Q.** And the IC50 (second compound 3.16 µM)?
**A.** The IC50 was < 31.6 nM.

**Q.** And the IC50 (second compound 10 µM)?
**A.** Its IC50 is < 31.6 nM.

**Q.** And the viability, T/C [1]?
**A.** Its viability, T/C is 59.8%.

**Q.** And the viability, T/C [2]?
**A.** Its viability, T/C is 48%.

**Q.** What about the viability, T/C [3] of the same compound?
**A.** The viability, T/C was 42.8%.

**Q.** What about the viability, T/C [4] of the same compound?
**A.** Its viability, T/C is 24.6%.

**Q.** What about the viability, T/C [5] of the same compound?
**A.** The viability, T/C was 23.5%.

**Q.** What about the viability, T/C [6] of the same compound?
**A.** The viability, T/C was 11.2%.

**Q.** What about the viability, T/C [7] of the same compound?
**A.** Its viability, T/C is 49.5%.

**Q.** What about the viability, T/C [8] of the same compound?
**A.** Its viability, T/C is 57.9%.

**Q.** And the viability, T/C [9]?
**A.** Its viability, T/C is 38.2%.

**Q.** And the viability, T/C [10]?
**A.** The viability, T/C was 26.6%.

**Q.** And the viability, T/C [11]?
**A.** The viability, T/C was 22.3%.

**Q.** What about the viability, T/C [12] of the same compound?
**A.** Its viability, T/C is 10.1%.

**Q.** And the viability, T/C [13]?
**A.** Its viability, T/C is 51.5%.

**Q.** And the viability, T/C [14]?
**A.** The viability, T/C was 47.9%.

**Q.** And the viability, T/C [15]?
**A.** The viability, T/C was 37.2%.

**Q.** And the viability, T/C [16]?
**A.** The viability, T/C was 27.7%.

**Q.** What about the viability, T/C [17] of the same compound?
**A.** Its viability, T/C is 18.8%.

**Q.** What about the viability, T/C [18] of the same compound?
**A.** Its viability, T/C is 8.98%.

**Q.** What about the viability, T/C [19] of the same compound?
**A.** Its viability, T/C is 38.5%.

**Q.** And the viability, T/C [20]?
**A.** The viability, T/C was 36.1%.

**Q.** What about the viability, T/C [21] of the same compound?
**A.** Its viability, T/C is 23.1%.

**Q.** And the viability, T/C [22]?
**A.** The viability, T/C was 15.7%.

**Q.** And the viability, T/C [23]?
**A.** The viability, T/C was 11.3%.

**Q.** What about the viability, T/C [24] of the same compound?
**A.** Its viability, T/C is 4.12%.

**Q.** What about the viability, T/C [25] of the same compound?
**A.** Its viability, T/C is 12.3%.

**Q.** What about the viability, T/C [26] of the same compound?
**A.** Its viability, T/C is 14.2%.

**Q.** What about the viability, T/C [27] of the same compound?
**A.** Its viability, T/C is 6.28%.

**Q.** What about the viability, T/C [28] of the same compound?
**A.** Its viability, T/C is 0.12%.

**Q.** And the viability, T/C [29]?
**A.** Its viability, T/C is 0.15%.

**Q.** What about the viability, T/C [30] of the same compound?
**A.** The viability, T/C was 0.09%.

**Q.** And the viability, T/C [31]?
**A.** Its viability, T/C is 0.8%.

**Q.** What about the viability, T/C [32] of the same compound?
**A.** Its viability, T/C is 0.14%.

**Q.** What about the viability, T/C [33] of the same compound?
**A.** The viability, T/C was 0.17%.

**Q.** What about the viability, T/C [34] of the same compound?
**A.** Its viability, T/C is 0.18%.

**Q.** And the viability, T/C [35]?
**A.** The viability, T/C was 0.19%.

**Q.** And the viability, T/C [36]?
**A.** Its viability, T/C is 0.13%.
